From patent publication US6610846B1, “Heteroaromatic glucokinase activators” (Hoffman-La Roche Inc., priority 1999, dated 2003) come the findings set out here.

As to `CS(=O)(=O)c1ccc(C(CC2CCCC2)C(=O)Nc2ccccn2)cc1S(C)(=O)=O` (stereo not shown), the melting point (usually the temperature of the solid-liquid transition) was 107 to 110 °C. Consider `O=C(Nc1nccs1)C(CC1CCCC1)c1ccc(Br)cc1` (stereo not shown) [Example 2, 2-(4-Bromo-phenyl)-3-cyclopentyl-N-thiazol-2-yl-propionamide], for which the melting point is 201 to 202 °C.

As to `Nc1ccc(C(CC2CCCC2)C(=O)Nc2nccs2)cc1` (stereo not shown) [Example 4, 2-(4-Amino-phenyl)-3-cyclopentyl-N-thiazol-2-yl-propionamide], the melting point is 102 to 107 °C. With `Nc1cccc(C(CC2CCCC2)C(=O)Nc2nccs2)c1` (stereo not shown) [Example 5, 2-(3-Amino-phenyl)-3-cyclopentyl-N-thiazol-2-yl-propionamide], the melting point was 158 to 160 °C.

`O=C(Nc1nccs1)C(CC1CCCC1)c1cccc(Cl)c1` (stereo not shown) [Example 6, 2-(3-Chloro-phenyl)-3-cyclopentyl-N-thiazol-2-yl-propionamide] displayed a melting point of 138.8 to 141.2 °C. The result for `O=C(Nc1nccs1)C(CC1CCCC1)c1ccc(C(F)(F)F)cc1` (stereo not shown) [Example 8, 3-Cyclopentyl-N-thiazol-2-yl-2-(4-trifluoromethyl-phenyl)-propionamide] reads 210 to 212 °C; that for `CSc1ccc(C(CC2CCCC2)C(=O)Nc2nccs2)cc1` (stereo not shown) [Example 9, 3-Cyclopentyl-2-(4-methylsulfanyl-phenyl)-N-thiazol-2-yl-propionamide], 195 to 196 °C.

Consider `O=C(Nc1nccs1)C(CC1CCCC1)c1ccc(SC(F)(F)F)cc1` (stereo not shown) [Example 10, 3-Cyclopentyl-N-thiazol-2-yl-2-(4-trifluoromethylsulfanyl-phenyl)-propionamide], for which the melting point fell in the range of 58 to 60 °C. The result for `CS(=O)(=O)c1ccc(C(CC2CCCC2)C(=O)Nc2nccs2)cc1[N+](=O)[O-]` (stereo not shown) [Example 14, 3-Cyclopentyl-2-(4-methanesulfonyl-3-nitrophenyl)-N-thiazol-2-yl-propionamide] reads 121 to 124 °C; that for `O=C(Nc1ncc(CO)s1)C(CC1CCCC1)c1ccc(Cl)c(Cl)c1` (stereo not shown) [Example 15, 3-Cyclopentyl-2-(3,4-dichlorophenyl)-N-(5-hydroxymethyl-thiazol-2-yl)-propionamide], 128 to 130 °C; that for `O=C(Nc1nc(CCO)cs1)C(CC1CCCC1)c1ccc(Cl)c(Cl)c1` (stereo not shown) [Example 16, 3-Cyclopentyl-2-(3,4-dichlorophenyl)-N-[4-(2-hydroxyethyl)-thiazol-2-yl]-propionamide], 85 to 86 °C. As to `O=C(Nc1nc(CO)cs1)C(CC1CCCC1)c1ccc(Cl)c(Cl)c1` (stereo not shown) [Example 17, 3-Cyclopentyl-2-(3,4-dichlorophenyl)-N-(4-hydroxymethyl-thiazol-2-yl)-propionamide], the melting point was 88 to 90 °C.

`O=C(O)Cc1csc(NC(=O)C(CC2CCCC2)c2ccc(Cl)c(Cl)c2)n1` (stereo not shown) [Example 18, {2-[3-Cyclopentyl-2-(3,4-dichlorophenyl)-propionylamino]-thiazol-4-yl}-acetic acid] showed a melting point of 100 to 102 °C. The result for `O=C(O)c1cnc(NC(=O)C(CC2CCCC2)c2ccc(Cl)c(Cl)c2)s1` (stereo not shown) [Example 19, 2-[3-Cyclopentyl-2-(3,4-dichlorophenyl)-propionylamino]-thiazole-5-carboxylic acid] reads 269 to 270 °C. Take `O=C(Nc1nccs1)C(CC1CCCC1)c1ccc([N+](=O)[O-])cc1` (stereo not shown) [Example 22(A), 3-Cyclopentyl-2-(4-nitro-phenyl)-N-thiazol-2-yl-propionamide]: the melting point fell in the range of 186 to 187 °C. `COC(=O)c1csc(NC(=O)C(CC2CCCC2)c2cccc(Cl)c2)n1` (stereo not shown) [Example 30, 2-[2-(3-Chloro-phenyl)-3-cyclopentyl-propionylamino]-thiazole-4-carboxylic acid methyl ester] had a melting point of 95 to 98 °C. The result for `COC(=O)c1csc(NC(=O)C(CC2CCCC2)c2ccc(Cl)cc2)n1` (stereo not shown) [Example 32, 2-[2-(4-Chloro-phenyl)-3-cyclopentyl-propionylamino]-thiazole-4-carboxylic acid methyl ester] reads 156 to 157 °C. The result for `CS(=O)(=O)c1ccc(C(CC2CCCC2)C(=O)Nc2nc(CO)cs2)cc1` (stereo not shown) [Example 35, 3-Cyclopentyl-N-(4-hydroxymethyl-thiazol-2-yl)-2-(4-methanesulfonyl-phenyl)-propionamide] reads 124 to 126 °C; that for `CS(=O)(=O)c1ccc(C(CC2CCCC2)C(=O)Nc2nc(CCO)cs2)cc1` (stereo not shown) [Example 36, 3-Cyclopentyl-N-[4-(2-hydroxyethyl)-thiazol-2-yl]-2-(4-methanesulfonyl-phenyl)-propionamide], 84 to 87 °C.

The molecule `O=C(Nc1ccccn1)C(CC1CCCC1)c1ccc([N+](=O)[O-])cc1` (stereo not shown) [Example 39(A), 3-Cyclopentyl-2-(4-nitro-phenyl)-N-pyridin-2-yl-propionamide] returned a melting point of 152 to 154 °C. The result for `CSc1ccc(C(CC2CCCC2)C(=O)Nc2ccccn2)cc1` (stereo not shown) [Example 40, 3-Cyclopentyl-2-(4-methylsulfanyl-phenyl)-N-pyridin-2-yl-propionamide] reads 127 to 128 °C; that for `O=C(Nc1ccccn1)C(CC1CCCC1)c1ccc(SC(F)(F)F)cc1` (stereo not shown) [Example 41, 3-Cyclopentyl-N-pyridin-2-yl-2-(4-trifluoromethylsulfanyl-phenyl)-propionamide], 101 to 102 °C; that for `CS(=O)(=O)c1ccc(C(CC2CCCC2)C(=O)Nc2ccccn2)cc1` (stereo not shown) [Example 42, 3-Cyclopentyl-2-(4-methanesulfonyl-phenyl)-N-pyridin-2-yl-propionamide], 172 to 173 °C.

With `O=C(O)c1ccc(NC(=O)C(CC2CCCC2)c2ccc(Cl)cc2)nc1` (stereo not shown) [Example 47, 6-[2-(4-Chloro-phenyl)-3-cyclopentyl-propionylamino]-nicotinic acid], the melting point was in the range of 206 to 208 °C. With `CS(=O)(=O)c1ccc(C(CC2CCCC2)C(=O)Nc2ccc(C(=O)O)cn2)cc1` (stereo not shown) [Example 48, 6-[3-Cyclopentyl-2-(4-methanesulfonyl-phenyl)-propionylamino]-nicotinic acid], the melting point was 191 to 193 °C. `O=C(Nc1ccc(CO)cn1)C(CC1CCCC1)c1ccc(Cl)cc1` (stereo not shown) [Example 50, 2-(4-Chloro-phenyl)-3-cyclopentyl-N-(5-hydroxymethyl-pyridin-2-yl)-propionamide] registered a melting point of 60 to 62 °C. The result for `O=C(Nc1ccc(O)cn1)C(CC1CCCC1)c1ccc(Cl)c(Cl)c1` (stereo not shown) [Example 51, 3-Cyclopentyl-2-(3,4-dichloro-phenyl)-N-(5-hydroxy-pyridin-2-yl)-propionamide] reads 79 to 81 °C; that for `CS(=O)(=O)c1ccc(C(CC2CCCC2)C(=O)Nc2ccc(CO)cn2)cc1` (stereo not shown) [Example 52, 3-Cyclopentyl-N-(5-hydroxymethyl-pyridin-2-yl)-2-(4-methanesulfonyl-phenyl)-propionamide], 74 to 77 °C.

For the molecule `Cc1ccc(NC(=O)C(CC2CCCC2)c2ccc(S(C)(=O)=O)cc2)nc1` (stereo not shown) [Example 53(A), 3-Cyclopentyl-2-(4-methanesulfonyl-phenyl)-N-(5-methyl-pyridin-2-yl)-propionamide], the melting point is 184 to 185 °C.

Molecule `O=C(Nc1ncc[nH]1)C(CC1CCCC1)c1ccc(Cl)c(Cl)c1` (stereo not shown) [Example 55, 3-Cyclopentyl-2-(3,4-dichlorophenyl)-N-(1H-imidazol-2-yl)-propionamide] gave a melting point of 58 to 60 °C. The result for `Cc1cc(NC(=O)C(CC2CCCC2)c2ccc(Cl)c(Cl)c2)no1` (stereo not shown) [Example 56, 3-Cyclopentyl-2-(3,4-dichlorophenyl)-N-(5-methyl-isoxazol-3-yl)-propionamide] reads 84 to 86 °C; that for `O=C(Nc1ncco1)C(CC1CCCC1)c1ccc(Cl)c(Cl)c1` (stereo not shown) [Example 57, 3-Cyclopentyl-2-(3,4-dichlorophenyl)-N-oxazol-2-yl-propionamide], 134 to 136 °C; that for `O=C(Nc1cccnn1)C(CC1CCCC1)c1ccc(Cl)c(Cl)c1` (stereo not shown) [Example 58, 3-Cyclopentyl-2-(3,4-dichlorophenyl)-N-pyridazin-3-yl-propionamide], 70 to 71 °C.

In turn, `O=C(Nc1ncccn1)C(CC1CCCC1)c1ccc(Cl)c(Cl)c1` (stereo not shown) [Example 59, 3-Cyclopentyl-2-(3,4-dichlorophenyl)-N-pyrimidin-2-yl-propionamide] gave a melting point of 103 to 105 °C.

As to `O=C(Nc1ccncn1)[C@H](CC1CCCC1)c1ccc(Cl)c(Cl)c1` [Example 60, 3-Cyclopentyl-2(R)-(3,4-dichloro-phenyl)-N-pyrimidine-4-yl-propionamide], the melting point lay within 166.5 to 169.3 °C. The result for `C[S+]([O-])c1ccc(C(CC2CCCC2)C(=O)Nc2nccs2)cc1` (stereo not shown) [Example 61, 3-Cyclopentyl-2-(4-methanesulfinyl-phenyl)-N-thiazol-2-yl-propionamide] reads 170 to 173 °C. Take `CCOC(=O)Cc1csc(NC(=O)C(CC2CCCC2)c2ccc(S(=O)(=O)C(F)(F)F)cc2)n1` (stereo not shown) [Example 62, {2-[3-Cyclopentyl-2-(4-trifluoromethanesulfonyl-phenyl)-propionylamino]-thiazol-4-yl}-acetic acid ethyl ester]: the melting point is 48 to 51 °C. Molecule `O=C(Nc1ccc(Br)cn1)C(CC1CCCC1)c1ccc(S(=O)(=O)C(F)(F)F)cc1` (stereo not shown) [Example 63, N-(5-Bromo-pyridin-2-yl)-3-cyclopentyl-2-(4-trifluoromethanesulfonyl-phenyl)-propionamide] showed a melting point of 130 to 132 °C. The result for `O=C(Nc1nccs1)C(CC1CCCC1)c1ccc(Cl)c([N+](=O)[O-])c1` (stereo not shown) [Example 64, 2-(4-Chloro-3-nitro-phenyl)-3-cyclopentyl-N-thiazol-2-yl-propionamide] reads 68 to 72 °C. The result for `CS(=O)(=O)c1ccc(C(CC2CCCC2)C(=O)Nc2ccc(Br)cn2)cc1[N+](=O)[O-]` (stereo not shown) [Example 66, N-(5-Bromo-pyridin-2-yl)-3-cyclopentyl-2-(4-methanesulfonyl-3-nitro-phenyl)-propionamide] reads 80 to 83 °C.
